How the values were obtained:
[1] = test system: patients having Relapsing-Remitting Multiple Sclerosis (RRMS); settings: cited from earlier work
[2] = test system: patients afflicted with a progressive form of multiple sclerosis (PPMS, SPMS, PRMS); assay: Phase III clinical trial of oral laquinimod in progressive forms of multiple sclerosis (Example 1); assay type: in vivo, human; settings: daily oral 0.6 mg, 0.9 mg, 1.2 mg and 1.8 mg
From the text: 3-5 Years (2-4 years recruitment duration). Progressive Forms of Multiple Sclerosis, including Primary Progressive Multiple sclerosis (PPMS) and Secondary Progressive Multiple Sclerosis (SPMS). […] Matching placebo for laquinimod arm: matching placebo for laquinimod administered once daily. Approximately 140-240 sites and approximately 1300-2300 subjects. Inclusion Criteria • 1. Subjects must be 25-65 years old. • 2. Subjects must have a confirmed and documented diagnosis of Primary Progressive (according to McDonald), Progressive-Relapsing or Secondary Progressive (clinical definition, without relapses in the previous year) Multiple Sclerosis disease course. • 3. Subjects must be ambulatory with converted Kurtzke EDSS score of 3.0-6.5. • 4. Subjects must have a Pyramidal Functional Systems (FS) score of ≧2. • 5. Subjects must have a threshold Timed 25-Foot Walk ([…]) score. Exclusion Criteria • 1. Subjects with RRMS. • 2. Subjects with clinically significant or unstable medical or surgical condition that would preclude safe and complete study participation, as determined by medical history, physical examination, ECG, laboratory tests or chest X-ray. • 3. […] Confirmed disability progression at 3 and 6 months. This study assesses the efficacy of various daily doses of laquinimod as compared to placebo in multiple sclerosis subjects.

[3] = in vivo; cited from earlier work
[4] = test system: genes related to antigen presentation and corresponding inflammatory pathways; settings: mainly via the NFkB pathway; cited from earlier work
[5] = test system: patients afflicted with PPMS; assay: Phase II clinical trial of laquinimod in Primary Progressive Multiple Sclerosis subjects (Example 2); assay type: in vivo, human; settings: daily oral 0.6 mg, 1.0 mg and 1.5 mg
Procedure: Study Duration • Screening phase: Up to 1 month • Treatment Phase: At least 15 months
Subjects with Primary Progressive Multiple Sclerosis (approximately 500 subjects in approximately 120 centers, with about 125 subjects per study arm).
Investigational Product Route and Dosage Form • 1. […] Placebo arm: Three capsules containing placebo (0.5/0.6 mg matching) to be administered orally once daily.
Eligible subjects are randomized in a 1:1:1:1 ratio into one of the following treatment arms: • 1. […] Matching placebo
Subjects that stopped treatment with the study drug before the completion of Month 12 visit are considered Early Treatment Discontinuation (ETD) subjects. ETD subjects continue follow-up according to scheduled visits (until Month 12).
Subjects have the following study visits: Screening visit (−1 Month), Baseline visit (Month 0), and Months 1, 2, 3, 6, 9, 12, and every three months until study termination.
The following assessments are performed at the specified time points: • 1. Vital signs are measured at each study visit. • 2. A physical examination is performed at months −1, 0, 1, 3, 6 and every 6 months thereafter, ETD (if applicable), and until study completion. • 3. The following safety clinical laboratory tests are performed: • a. Complete blood count (CBC) with differential at all scheduled visits. • b. Serum chemistry (including electrolytes, liver enzymes, urea, creatinine, glucose, total protein, albumin, direct and total bilirubin, Creatinephosphokinase (CPK), serum conventional C-reactive protein (CRP), fibrinogen and pancreatic amylase)—at all scheduled visits. Calculated Glomerular Filtration Rate (GFR) at screening and prior to each MRI scan. • c. Lipid profile (total cholesterol, HDL, LDL, triglycerides)—at baseline (month 0) and every 12 months until completion/ETD. • d. Serum TSH, T3 and Free T4 at baseline (month 0), month 6 and every 12 months until completion/ETD. • e. Urinalysis at the screening visit. • f. Serum human choriogonadotropin beta (β-hCG) in women of child-bearing potential is performed at each scheduled study visit. • g. Urine β-hCG test is performed in women of child-bearing potential at baseline (month 0) and at each scheduled study visit thereafter. • h. Starting after visit Month 3 a β-hCG test is performed in women of child-bearing potential every 28 (±2) days. In case of suspected pregnancy the study drug is discontinued. • 4. Additional blood for analysis of serology for Hepatitis B and C viruses at baseline visit • 5. […] ECG is performed at months −1 (screening), 0 (baseline, three recordings 10 min apart, before first dose), 1, 2, 3, 6, 12 and every 12 months until completion/ETD. • 8. Chest X-ray is performed at month −1, (if not performed within 6 months prior to the screening visit). • 9. Adverse Events (AEs) are monitored throughout the study. • 10. Concomitant Medications are monitored throughout the study. • 11. All subjects—conventional MRI scans with gadolinium at Months 0 (14 to 7 days before Baseline), and 12. In case of ETD, or completion, an additional MRI is performed, provided no study MRI was done within the previous 3 months. • 12. In case of steroid treatment, study MRI is performed before such treatment or delayed to allow a minimum of 14 days but not more than 28 days from the completion of the steroid course. • 13. All subjects—MRI including 3D T1-w acquisitions of the brain and cervical cord, to measure whole brain volume, cord atrophy, thalamic atrophy, cortical atrophy and white matter (WM) atrophy at Months 0 (Baseline), 12 or ETD (if applicable). • 14. Neurological evaluations, including Expanded Disability Status Scale (EDSS), Timed 25-Foot Walk (T25FW)/9-Hole Peg test (9HPG), Ambulation Index (AI), Functional systems (FS), are performed at months −1, 0, and every 3 months thereafter, ETD visit (if applicable) and until completion visit. • 15. […]

CCN(C(=O)c1c(O)c2c(Cl)cccc2n(C)c1=O)c1ccccc1 [laquinimod]
EDSS progression of disability ([1]; RRMS patients): consistently reduced EDSS progression of disability
brain atrophy ([1]; RRMS patients): reduced brain atrophy
non-conventional MRI metrics ([1]; RRMS patients): increased non-conventional MRI metrics suggestive of preservation of tissue architecture
safety and tolerability profile ([1]; two phase III trials, relapsing-remitting multiple sclerosis patients): favorable safety and tolerability profile
accumulation of physical disability ([2]; PPMS, vs placebo control group): reduces the accumulation of physical disability
accumulation of physical disability ([2]; PPMS, vs the patient at baseline): reduces the accumulation of physical disability
accumulation of physical disability ([2]; PRMS, vs placebo control group): reduces the accumulation of physical disability
accumulation of physical disability ([2]; PRMS, vs the patient at baseline): reduces the accumulation of physical disability
accumulation of physical disability ([2]; SPMS, vs placebo control group): reduces the accumulation of physical disability
accumulation of physical disability ([2]; SPMS, vs the patient at baseline): reduces the accumulation of physical disability
accumulation of physical disability ([2]; progressive form of multiple sclerosis, vs placebo control group): reduces the accumulation of physical disability
accumulation of physical disability ([2]; progressive form of multiple sclerosis, vs the patient at baseline): reduces the accumulation of physical disability
oral bioavailability [3]: high
suppression of genes related to antigen presentation [4]: induced suppression of genes related to antigen presentation and corresponding inflammatory pathways
accumulation of physical disability ([5]; vs placebo control group): reduces the accumulation of physical disability
brain atrophy (percentage change in brain volume from Baseline to month 12) ([5]; vs placebo control group): reduces brain atrophy
cognitive function ([5]; vs placebo control group): improves cognitive function
cumulative number of new T2 lesions ([5]; vs placebo control group): reduces the cumulative number of new T2 lesions
accumulation of physical disability ([5]; vs the patient at baseline): reduces the accumulation of physical disability
brain atrophy (percentage change in brain volume from Baseline to month 12) ([5]; vs the patient at baseline): reduces brain atrophy
cognitive function ([5]; vs the patient at baseline): improves cognitive function
cumulative number of new T2 lesions ([5]; vs the patient at baseline): reduces the cumulative number of new T2 lesions

Source: patent US20180064702A1 (Teva Pharmaceutical Industries, Ltd., priority 2013, published 2018)
